From US20250215021A1, “SYSTEMS AND METHODS UTILIZING THERANOSTIC AGENTS FOR BPCT AND BNCT FOR TARGETED CANCER TREATMENT” (University of Virginia Patent Foundation, priority 2022, published 2025)

Tested on: MCF-10A epithelial cells
Test: Cell uptake in MCF-10A (normal cell control)
Assay type: cell-based
Details: all concentrations tested
Procedure: Referring now to FIGS. 6A-6B, after confirming the structure and purity of the compound, further biological evaluation was performed. Preferential cancer cell uptake was evaluated in human breast cancer cells MCF-7 compared with MCF-10A epithelial cells. […] The cancer cell uptake was also confirmed by confocal microscopy. The concentration and constitutional stability of the compound in cancer cells was established by lysing the MCF-7 incubated with 5 μM of compound for 4 hrs. […] Inherent toxicity of the compound to both normal and cancer cells was evaluated using HMCD and 1-amino-1-carbadodecaborate as controls.

CC1(C)C(/C=C/C2=C(Cl)C(=C/C=C3/N(CCCCCC(=O)O)c4ccccc4C3(C)C)/CCC2)=[N+](CCCCS(=O)(=O)[O-])c2ccccc21 [parent HMCD]
uptake in MCF-10A cells: no or poor uptake
